In US7145010B2, “Tert-alkylphenoxy-substituted polycyclic compounds” (BASF Aktiengesellschaft, priority 2001, dated 2006):
In brackets after ≈: the same amount, converted by molar mass.

Columns and labels:
[1] = Solubility in extremely nonpolar to polar solvents
[2] = Homogeneous incorporation into aqueous polymer dispersions (Example 25 of WO-A-99/40123 repeated); assay type: physicochemical
Text: Example 25 of WO-A-99/40123 was repeated to prepare aqueous polymer dispersions containing 15% by weight of the fluorescent colorant of Example 2 or […] of the near infrared absorber of Example 6 in homogeneous dispersion. The corresponding phenoxy-substituted derivatives, by contrast, were only incorporable with homogeneous results up to a concentration of respectively 7 and 1% by weight.

Molecule	Solubility in Isopropanol (50° C.) [1]	Solubility in Pentane (25° C.) [1]	Solubility in Toluene (25° C.) [1]	Concentration contained in homogeneous dispersion in aqueous polymer dispersion [2]
1:1 mixture of N,N′-bis(2,6-diisopropylphenyl)-1,6,8,11,16,18-hexa(p-tert-octylphenoxy)-quaterrylene-3,4:13,14-tetracarboxylic diimide and N,N′-bis(2,6-diisopropyl-phenyl)-1,6,8,11,16,19-hexa(p-tert-octylphenoxy)quaterrylene-3,4:13,14-tetracarboxylic diimide [Example 6]	49 mg/mL	55 mg/mL	>500 mg/mL	
CC(C)c1cccc(C(C)C)c1N1C(=O)c2cc(Oc3ccc(C(C)(C)CC(C)(C)C)cc3)c3c4cccc5c(Oc6ccc(C(C)(C)CC(C)(C)C)cc6)ccc(c6c(Oc7ccc(C(C)(C)CC(C)(C)C)cc7)cc(c2c36)C1=O)c54 [Example 1]	56 mg/mL (≈ 51.2 mM)	53 mg/mL (≈ 48.4 mM)	>250 mg/mL	
CC(C)c1cccc(C(C)C)c1N1C(=O)c2cc(Oc3ccc(C(C)(C)CC(C)(C)C)cc3)c3c4c(Oc5ccc(C(C)(C)CC(C)(C)C)cc5)cc5c6c(cc(Oc7ccc(C(C)(C)CC(C)(C)C)cc7)c(c7c(Oc8ccc(C(C)(C)CC(C)(C)C)cc8)cc(c2c37)C1=O)c64)C(=O)N(c1c(C(C)C)cccc1C(C)C)C5=O [Example 2]	92 mg/mL (≈ 60.2 mM)	81 mg/mL (≈ 53 mM)	>400 mg/mL	15 % by weight
CC(C)c1cccc(C(C)C)c1N1C(=O)c2cc(Oc3ccc(C(C)(C)CC4CCCCC4)cc3)c3c4c(Oc5ccc(C(C)(C)CC6CCCCC6)cc5)cc5c6c(cc(Oc7ccc(C(C)(C)CC8CCCCC8)cc7)c(c7c(Oc8ccc(C(C)(C)CC9CCCCC9)cc8)cc(c2c37)C1=O)c64)C(=O)N(c1c(C(C)C)cccc1C(C)C)C5=O [Example 3]	87 mg/mL (≈ 53.3 mM)	65 mg/mL (≈ 39.8 mM)	>350 mg/mL	
CC(C)c1cccc(C(C)C)c1N1C(=O)c2ccc3c4c(Oc5ccc(C(C)(C)CC(C)(C)C)cc5)cc5c6c(ccc(c7c(Oc8ccc(C(C)(C)CC(C)(C)C)cc8)cc(c2c37)C1=O)c64)C(=O)N(c1c(C(C)C)cccc1C(C)C)C5=O [Example 4]	59 mg/mL (≈ 52.7 mM)	55 mg/mL (≈ 49.1 mM)	>250 mg/mL	
CCCCCCCCCCCCN1C(=O)c2ccc3c4c(Oc5ccc(C(C)(C)CC(C)(C)C)cc5)cc5c6c(ccc(c7c(Oc8ccc(C(C)(C)CC(C)(C)C)cc8)cc(c2c37)C1=O)c64)C(=O)N(CCCCCCCCCCCC)C5=O [Example 5]	47 mg/mL (≈ 41.4 mM)	24 mg/mL (≈ 21.1 mM)	155 mg/mL (≈ 136 mM)	
